Biological target: T1, ATM protein immunoprecipitated from HeLa cell nuclear extract (Homo sapiens, UniProt Q13315)
T1 construct: ATM protein was immunoprecipitated from HeLa cell nuclear extract; endogenous in cells; host or cells: HeLa cell nuclear extract (immunoprecipitated with rabbit polyclonal anti-ATM antiserum)
Experiment: In vitro ATM inhibition assay (phosphorylation of GSTp53N66 on serine 15, chemiluminescent detection); also: tested normally from 100 µM down to 0.1 nM
Type: biochemical
Conditions: read-out: IC50 values (the concentration at which 50% of the enzyme activity is inhibited), ATM inhibition
Description: In order to assess the inhibitory action of the compounds against ATM in vitro, the following assay was used to determine IC50 values. ATM protein was immunoprecipitated from HeLa cell nuclear extract using rabbit polyclonal anti-sera raised to the C-terminal ˜500 amino-acid residues of the human ATM protein. […] 10 μl of immunoprecipitated ATM in Buffer C (50 mM Hepes, pH 7.4, 6 mM MgCl2, 150 mM NaCl, 0.1 mM sodium orthovanadate, 4 mM MnCl2, 0.1 mM dithiothreitol, 10% glycerol) was added to 32.5 μl of buffer C containing 1 μg of the ATM substrate GSTp53N66 in a V-bottomed 96 well polypropylene plate. The GSTp53N66 substrate is the amino terminal 66 amino acid residues of human wild type p53 fused to glutathione S-transferase. […] Varying concentrations of inhibitor were then added. […] After 10 minutes of incubation at 37° C., the reactions were initiated by the addition of 5 μl of 500 μM Na-ATP. After 1 hour with shaking at 37° C., 150 μl of phosphate buffered saline (PBS) was added to the reaction and the plate centrifuged at 1500 rpm for 10 minutes. 5 μl of the reaction was then transferred to a 96 well opaque white plate containing 45 μl of PBS to allow the GSTp53N66 substrate to bind to the plate wells. The plate was covered and incubated at room temperature for 1 hour with shaking before discarding the contents. The plate wells were washed twice by the addition of PBS prior to the addition of 3% (w/v) bovine serum albumin (BSA) in PBS. The plate was incubated at room temperature for 1 hour with shaking before discarding the contents and washing twice with PBS. To the wells, 50 μl of a 1:10,000 dilution of primary phosphoserine-15 antibody (Cell Signaling Technology, #9284L) in 3% BSA/PBS was added to detect the phosphorylation event on the serine 15 residue of p53 elicited by the ATM kinase. […] The wells were then washed four times with PBS before the addition of chemiluminescence reagent (NEN Renaissance, NEL105). The plate was then shaken briefly, covered with a transparent plate seal and transferred to a TopCount NXT for chemiluminescent counting. Counts per second, following a one second counting time, were recorded for each reaction.
The enzyme activity for each compound is then calculated using the following equation:
[formula] Results In vitro ATM assays
Compounds were assayed for ATM inhibition activity using the method described above. […] These are determined over a range of different concentrations, normally from 100 μM down to 0.1 nM. Such IC50 values are used as comparative values to identify increased compound potencies.

T1 sequence (Q13315 whole entry): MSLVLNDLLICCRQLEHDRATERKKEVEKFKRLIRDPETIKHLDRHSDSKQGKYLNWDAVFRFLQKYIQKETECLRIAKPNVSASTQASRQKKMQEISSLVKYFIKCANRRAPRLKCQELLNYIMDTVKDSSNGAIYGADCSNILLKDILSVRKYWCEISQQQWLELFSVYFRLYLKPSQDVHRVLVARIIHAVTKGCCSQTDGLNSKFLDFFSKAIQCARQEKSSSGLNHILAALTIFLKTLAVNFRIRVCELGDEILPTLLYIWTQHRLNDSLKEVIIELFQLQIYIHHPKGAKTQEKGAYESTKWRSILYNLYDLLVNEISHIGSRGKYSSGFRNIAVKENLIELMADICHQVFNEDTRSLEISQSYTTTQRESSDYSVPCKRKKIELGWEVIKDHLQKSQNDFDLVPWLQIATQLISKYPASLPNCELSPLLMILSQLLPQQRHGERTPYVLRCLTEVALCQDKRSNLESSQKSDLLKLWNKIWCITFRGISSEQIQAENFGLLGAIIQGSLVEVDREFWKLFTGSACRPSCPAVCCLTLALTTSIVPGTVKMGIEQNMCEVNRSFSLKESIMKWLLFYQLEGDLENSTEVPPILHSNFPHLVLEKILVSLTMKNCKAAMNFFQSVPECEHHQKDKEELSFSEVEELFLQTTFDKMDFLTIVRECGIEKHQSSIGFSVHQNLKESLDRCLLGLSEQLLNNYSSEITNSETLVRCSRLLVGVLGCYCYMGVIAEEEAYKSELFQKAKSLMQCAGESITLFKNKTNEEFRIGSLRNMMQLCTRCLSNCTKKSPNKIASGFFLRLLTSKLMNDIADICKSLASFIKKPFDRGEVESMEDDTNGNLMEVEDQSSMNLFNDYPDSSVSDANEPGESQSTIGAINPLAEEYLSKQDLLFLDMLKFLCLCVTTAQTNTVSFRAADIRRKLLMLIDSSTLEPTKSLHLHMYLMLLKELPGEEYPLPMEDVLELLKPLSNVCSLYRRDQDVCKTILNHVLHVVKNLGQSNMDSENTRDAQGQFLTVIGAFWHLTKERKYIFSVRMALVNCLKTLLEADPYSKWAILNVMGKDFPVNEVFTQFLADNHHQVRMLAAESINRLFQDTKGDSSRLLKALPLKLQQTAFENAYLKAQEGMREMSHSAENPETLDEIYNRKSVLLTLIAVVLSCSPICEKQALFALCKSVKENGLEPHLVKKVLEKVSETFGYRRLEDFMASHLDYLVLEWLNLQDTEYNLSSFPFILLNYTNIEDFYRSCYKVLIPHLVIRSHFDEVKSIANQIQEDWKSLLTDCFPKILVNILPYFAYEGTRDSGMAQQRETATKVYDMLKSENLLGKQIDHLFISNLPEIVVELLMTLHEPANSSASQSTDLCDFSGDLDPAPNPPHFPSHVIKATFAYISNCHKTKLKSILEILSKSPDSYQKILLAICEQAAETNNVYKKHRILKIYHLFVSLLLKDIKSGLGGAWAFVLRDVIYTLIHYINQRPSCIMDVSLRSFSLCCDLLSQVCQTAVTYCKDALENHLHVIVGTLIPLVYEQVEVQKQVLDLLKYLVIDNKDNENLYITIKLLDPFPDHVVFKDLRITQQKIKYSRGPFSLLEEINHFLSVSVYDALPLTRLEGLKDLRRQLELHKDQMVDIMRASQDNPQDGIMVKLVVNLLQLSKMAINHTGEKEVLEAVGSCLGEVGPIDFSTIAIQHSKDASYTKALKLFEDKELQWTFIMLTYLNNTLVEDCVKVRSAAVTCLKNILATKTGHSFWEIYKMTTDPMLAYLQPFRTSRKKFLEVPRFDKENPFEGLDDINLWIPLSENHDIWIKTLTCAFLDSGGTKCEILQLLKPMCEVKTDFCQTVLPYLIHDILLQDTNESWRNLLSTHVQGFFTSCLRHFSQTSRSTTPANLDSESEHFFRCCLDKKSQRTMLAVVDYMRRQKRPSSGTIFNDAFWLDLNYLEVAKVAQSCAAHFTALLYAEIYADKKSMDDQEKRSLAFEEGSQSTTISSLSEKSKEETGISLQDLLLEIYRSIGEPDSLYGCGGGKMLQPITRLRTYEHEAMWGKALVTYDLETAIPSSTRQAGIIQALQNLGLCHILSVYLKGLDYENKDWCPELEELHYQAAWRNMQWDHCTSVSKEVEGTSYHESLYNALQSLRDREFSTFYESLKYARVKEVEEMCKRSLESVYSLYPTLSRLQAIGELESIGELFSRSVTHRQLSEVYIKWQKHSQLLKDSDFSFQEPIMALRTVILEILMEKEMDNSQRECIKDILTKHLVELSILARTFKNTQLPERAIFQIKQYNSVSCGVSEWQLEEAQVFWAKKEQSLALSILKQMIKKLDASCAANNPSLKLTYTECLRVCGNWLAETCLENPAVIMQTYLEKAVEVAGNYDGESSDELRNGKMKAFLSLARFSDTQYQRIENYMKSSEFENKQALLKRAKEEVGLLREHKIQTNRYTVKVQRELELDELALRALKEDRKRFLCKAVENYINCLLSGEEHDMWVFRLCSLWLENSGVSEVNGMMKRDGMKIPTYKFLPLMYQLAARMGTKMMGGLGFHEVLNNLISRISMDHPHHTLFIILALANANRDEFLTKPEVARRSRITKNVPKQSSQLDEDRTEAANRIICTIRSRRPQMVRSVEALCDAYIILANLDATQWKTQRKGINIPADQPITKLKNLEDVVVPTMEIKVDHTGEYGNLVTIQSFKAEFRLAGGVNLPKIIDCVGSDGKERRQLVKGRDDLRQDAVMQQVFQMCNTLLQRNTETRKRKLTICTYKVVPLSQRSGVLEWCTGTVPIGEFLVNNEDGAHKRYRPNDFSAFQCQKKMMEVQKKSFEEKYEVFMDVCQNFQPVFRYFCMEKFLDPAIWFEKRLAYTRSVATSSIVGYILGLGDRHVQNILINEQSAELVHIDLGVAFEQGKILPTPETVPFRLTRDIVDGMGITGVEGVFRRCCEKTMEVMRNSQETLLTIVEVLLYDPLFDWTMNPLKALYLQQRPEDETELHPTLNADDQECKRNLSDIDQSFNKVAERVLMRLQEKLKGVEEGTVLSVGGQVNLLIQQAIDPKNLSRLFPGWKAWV

Row | Structure (SMILES) | IC50 [nM]
1 | CC(C)(C)OC(=O)N1CCCN(CCCN2c3ccccc3Sc3c(-c4cc(=O)cc(N5CCOCC5)o4)cccc32)CC1 [Compound 333] | < 200
2 | CN1CCC(NCCCN2c3ccccc3Sc3c(-c4cc(=O)cc(N5CCOCC5)o4)cccc32)CC1 [Compound 307] | < 200
3 | O=C(CCN1CCN(c2ncccn2)CC1)Nc1ccc2c(c1)Cc1cccc(-c3cc(=O)cc(N4CCOCC4)o3)c1S2 [Compound 355] | < 200
4 | CCN1CCN(CC(=O)Nc2ccc3c(c2)Sc2cccc(-c4cc(=O)cc(N5CCOCC5)o4)c2S3)CC1 [Compound 81] | < 200
5 | O=C(Nc1ccc2c(c1)Sc1cccc(-c3cc(=O)cc(N4CCOCC4)o3)c1S2)c1ccco1 [Compound 29] | < 200
6 | O=c1cc(-c2cccc3c2Sc2ccccc2N3CCCNCCN2CCOCC2)oc(N2CCOCC2)c1 [Compound 272] | < 200
7 | CN(C)CCNCCCN1c2ccccc2Sc2c(-c3cc(=O)cc(N4CCOCC4)o3)cccc21 [Compound 282] | < 200
8 | O=C(Nc1ccc2c(c1)Sc1cccc(-c3cc(=O)cc(N4CCOCC4)o3)c1S2)C1CC1 [Compound 24] | < 200
9 | Nc1ccc2c(c1)Sc1cccc(-c3cc(=O)cc(N4CCOCC4)o3)c1S2 [Compound 21, 2-(7-Amino-thianthren-1-yl)-6-morpholin-4-yl-pyran-4-one] | < 200
10 | COCCN1CCN(C(=O)c2ccc3c(c2)Sc2cccc(-c4cc(=O)cc(N5CCOCC5)o4)c2S3)CC1 [Compound 17] | < 200
11 | CC(=O)N1CCN(CC(=O)Nc2ccc3c(c2)Sc2cccc(-c4cc(=O)cc(N5CCOCC5)o4)c2S3)CC1 [Compound 77] | < 200
12 | O=c1cc(-c2cccc3c2Sc2ccccc2N3CCCNC(CO)(CO)CO)oc(N2CCOCC2)c1 [Compound 322] | < 200
13 | O=C(CCN1CCCC1)Nc1ccc2c(c1)Sc1cccc(-c3cc(=O)cc(N4CCOCC4)o3)c1S2 [Compound 98] | < 200
14 | CC(C)NC(=O)CN1CCN(CCCN2c3ccccc3Sc3c(-c4cc(=O)cc(N5CCOCC5)o4)cccc32)CC1 [Compound 296] | < 200
15 | CC(=O)Oc1ccccc1C(=O)Nc1ccc2c(c1)Sc1cccc(-c3cc(=O)cc(N4CCOCC4)o3)c1S2 [Compound 39] | < 200
16 | O=C(COc1ccc2c(c1)Sc1cccc(-c3cc(=O)cc(N4CCOCC4)o3)c1S2)N1CCCCCC1 [Compound 446] | < 200
17 | O=C(COc1ccc2c(c1)Cc1cccc(-c3cc(=O)cc(N4CCOCC4)o3)c1S2)N1CCNCC1 [Compound 528] | < 200
18 | O=c1cc(-c2cccc3c2Sc2ccccc2N3CCCNCc2ccccn2)oc(N2CCOCC2)c1 [Compound 266] | < 200
19 | NCCNCC(=O)Nc1ccc2c(c1)Sc1cccc(-c3cc(=O)cc(N4CCOCC4)o3)c1S2 [Compound 58] | < 200

Row | Structure (SMILES) | IC50 [nM]
20 | NC(=O)C1CCN(C(=O)COc2ccc3c(c2)Cc2cccc(-c4cc(=O)cc(N5CCOCC5)o4)c2S3)CC1 [Compound 509] | < 200
21 | O=c1cc(-c2cccc3c2Sc2ccccc2N3CCCN2CCNCC2)oc(N2CCOCC2)c1 [Compound 303] | < 200
22 | CCN1CCN(S(=O)(=O)c2ccc3c(c2)Cc2cccc(-c4cc(=O)cc(N5CCOCC5)o4)c2S3)CC1 [Compound 482] | < 200
23 | C[C@@H]1CN(CCC(=O)Nc2ccc3c(c2)Sc2cccc(-c4cc(=O)cc(N5CCOCC5)o4)c2S3)C[C@H](C)O1 [Compound 109] | < 200
24 | COC(=O)C(=O)Nc1ccc2c(c1)Sc1cccc(-c3cc(=O)cc(N4CCOCC4)o3)c1S2 [Compound 36] | < 200
25 | O=C(CNCCO)Nc1ccc2c(c1)Sc1cccc(-c3cc(=O)cc(N4CCOCC4)o3)c1S2 [Compound 57] | < 200
26 | CC(=O)N1CCN(S(=O)(=O)c2ccc3c(c2)Cc2cccc(-c4cc(=O)cc(N5CCOCC5)o4)c2S3)CC1 [Compound 476] | < 200
27 | O=C(CCN1CCOCC1)Nc1ccc2c(c1)Sc1cccc(-c3cc(=O)cc(N4CCOCC4)o3)c1S2 [Compound 91] | < 200
28 | CC(C)N1CCN(C(=O)COc2ccc3c(c2)Sc2cccc(-c4cc(=O)cc(N5CCOCC5)o4)c2S3)CC1 [Compound 437] | < 200
29 | O=C(CCN1CCN(c2ccccn2)CC1)Nc1ccc2c(c1)Sc1cccc(-c3cc(=O)cc(N4CCOCC4)o3)c1S2 [Compound 120] | < 200
30 | O=C(c1ccc2c(c1)Sc1cccc(-c3cc(=O)cc(N4CCOCC4)o3)c1S2)N1CCN(c2ccccc2F)CC1 [Compound 15] | < 200
31 | CC(C)(C)OC(=O)N1CCN(C(=O)c2ccc3c(c2)Sc2cccc(-c4cc(=O)cc(N5CCOCC5)o4)c2S3)CC1 [Compound 16] | < 200
32 | CC(=O)N1CCC(C(=O)Nc2ccc3c(c2)Sc2cccc(-c4cc(=O)cc(N5CCOCC5)o4)c2S3)CC1 [Compound 38] | < 200
33 | CCCNCCOc1ccc2c(c1)Sc1cccc(-c3cc(=O)cc(N4CCOCC4)o3)c1S2 [Compound 383] | < 200
34 | O=C(c1ccc2c(c1)Sc1cccc(-c3cc(=O)cc(N4CCOCC4)o3)c1S2)N1CCN(C(=O)c2ccco2)CC1 [Compound 18] | < 200
35 | O=C(COc1ccc2c(c1)Sc1cccc(-c3cc(=O)cc(N4CCOCC4)o3)c1S2)NCc1ccncc1 [Compound 439] | < 200
36 | CCN1CCCC1CNCC(=O)Nc1ccc2c(c1)Sc1cccc(-c3cc(=O)cc(N4CCOCC4)o3)c1S2 (stereo not drawn) [Compound 87] | < 200
37 | CC(=O)N1CCN(CCC(=O)Nc2ccc3c(c2)Cc2cccc(-c4cc(=O)cc(N5CCOCC5)o4)c2S3)CC1 [Compound 349] | < 200
38 | O=C(CN1CCN(CCOCCO)CC1)Nc1ccc2c(c1)Cc1cccc(-c3cc(=O)cc(N4CCOCC4)o3)c1S2 [Compound 340] | < 200

Row | Structure (SMILES) | IC50 [nM]
39 | CCC(C)(C)NS(=O)(=O)c1ccc2c(c1)Cc1cccc(-c3cc(=O)cc(N4CCOCC4)o3)c1S2 [Compound 488] | < 200
40 | O=c1cc(-c2cccc3c2Sc2ccc(S(=O)(=O)N4CCCNCC4)cc2C3)oc(N2CCOCC2)c1 [Compound 489] | < 200
41 | O=C(CNCC1CCCO1)Nc1ccc2c(c1)Sc1cccc(-c3cc(=O)cc(N4CCOCC4)o3)c1S2 (stereo not drawn) [Compound 68] | < 200
42 | CC(C)CNCCCN1c2ccccc2Sc2c(-c3cc(=O)cc(N4CCOCC4)o3)cccc21 [Compound 242] | < 200
43 | O=c1cc(-c2cccc3c2Sc2ccc(S(=O)(=O)N4CCCC(CO)C4)cc2C3)oc(N2CCOCC2)c1 (stereo not drawn) [Compound 471] | < 200
44 | O=C(c1ccc2c(c1)Sc1cccc(-c3cc(=O)cc(N4CCOCC4)o3)c1S2)N1CCN(c2ccncc2)CC1 [Compound 9] | < 200
45 | COCCN1CCN(CC(=O)Nc2ccc3c(c2)Sc2cccc(-c4cc(=O)cc(N5CCOCC5)o4)c2S3)CC1 [Compound 78] | < 200
46 | CCN1CCN(CCC(=O)Nc2ccc3c(c2)Sc2cccc(-c4cc(=O)cc(N5CCOCC5)o4)c2S3)CC1 [Compound 119] | < 200
47 | O=C(CCNCCN1CCCCC1)Nc1ccc2c(c1)Sc1cccc(-c3cc(=O)cc(N4CCOCC4)o3)c1S2 [Compound 127] | < 200
48 | O=C(CCN1CCN(c2ccc(F)cc2)CC1)Nc1ccc2c(c1)Cc1cccc(-c3cc(=O)cc(N4CCOCC4)o3)c1S2 [Compound 354] | < 200
49 | O=c1cc(-c2cccc3c2Sc2ccc(OCCNCCc4ccccn4)cc2S3)oc(N2CCOCC2)c1 [Compound 381] | < 200
50 | O=C(Nc1ccc2c(c1)Sc1cccc(-c3cc(=O)cc(N4CCOCC4)o3)c1S2)c1ccc2c(c1)OCO2 [Compound 25] | < 200
51 | O=C(CCN1CCN(CCOCCO)CC1)Nc1ccc2c(c1)Sc1cccc(-c3cc(=O)cc(N4CCOCC4)o3)c1S2 [Compound 117] | < 200
52 | COC(=O)CCC(=O)Nc1ccc2c(c1)Sc1cccc(-c3cc(=O)cc(N4CCOCC4)o3)c1S2 [Compound 41] | < 200
53 | O=C(CN1CCN(c2ncccn2)CC1)Nc1ccc2c(c1)Cc1cccc(-c3cc(=O)cc(N4CCOCC4)o3)c1S2 [Compound 345] | < 200
54 | CN1CCCN(CC(=O)Nc2ccc3c(c2)Sc2cccc(-c4cc(=O)cc(N5CCOCC5)o4)c2S3)CC1 [Compound 60] | < 200
55 | CN(CCOc1ccc2c(c1)Sc1cccc(-c3cc(=O)cc(N4CCOCC4)o3)c1S2)CCc1ccccn1 [Compound 398] | < 200
56 | C=CCNS(=O)(=O)c1ccc2c(c1)Cc1cccc(-c3cc(=O)cc(N4CCOCC4)o3)c1S2 [Compound 462] | < 200
57 | O=C(CNCCCN1CCOCC1)Nc1ccc2c(c1)Sc1cccc(-c3cc(=O)cc(N4CCOCC4)o3)c1S2 [Compound 63] | < 200

Reference: patent US7429660B2, “ATM inhibitors” (Kudos Pharmaceuticals Limited, priority 2003, dated 2008)
